Measured values taken from the METLIN SMRT retention time set (Domingo-Almenara et al. 2019).

Test: gradient 5% acetonitrile 3 min, to 50% in 2 min, to 85% in 15 min, held 3 min, 100 µL/min
Conditions: column: Zorbax Extend-C18 2.1 x 50 mm; eluents: water / acetonitrile, 0.1% formic acid
How it was run: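 Values are retention times taken from adduct peaks that software picked and an analyst inspected. The pure standards were run as mixtures of ~100 molecules on HPLC linked to a quadrupole time-of-flight mass spectrometer, in positive and negative ionization mode. A Zorbax Extend-C18 column (2.1 × 50 mm, 1.8 μm) was used at 100 μL/min with water and acetonitrile, each including 0.1% formic acid.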

Structure (SMILES)	RP-LC retention time [s]
CC(C)(C)C(=O)N1C[C@@H](CO)[C@H](c2nc(-c3ccncc3)no2)C1	631
Clc1nc2nc3n(c2nc1Cl)CCC3	761
O=S(=O)(c1ccc(F)cc1)N1CCN(c2cnn3cnnc3c2)CC1	653
O=C(NCc1ccccc1F)C1CCN(c2nnc3ccc(C(F)(F)F)cn23)CC1	764
Cc1cc(S(=O)(=O)N2CCc3nc(-c4ccccc4)ncc3C2)ccc1F	1090
COc1cccc(NC(=O)N(C)CCc2noc(COc3ccccc3F)n2)c1	692
CN1C(=O)c2cccc3c(C(=O)c4ccccc4)ccc(c23)C1=O	921
COc1ccc(-c2nc(NCc3cccnc3)c3ccccc3n2)cc1	574
COc1cc(CN(CC2CCCO2)C(=O)c2oc3ccccc3c2C)cc(OC)c1OC (stereo not drawn)	1030
N#Cc1ccc(NC(=O)C2Oc3ccccc3NC2=O)cc1 (stereo not drawn)	727
CN(C)c1cc2c(Nc3ccc4c(cnn4Cc4ccccc4)c3)ncnc2cn1	820
Cn1nc(CC(=O)Nc2ccccc2Br)c2ccccc2c1=O	774
COc1ccc(N2CC(c3noc(-c4ccc5c(c4)OCO5)n3)CC2=O)cc1 (stereo not drawn)	874
CCS(=O)(=O)c1ccc2c(c1)N(Cc1nc(-c3ccc(Br)cc3)no1)C(=O)CO2	988
COCc1cnc2c(c1SCc1ccc(F)cc1)c(=O)n(C)c(=O)n2C	997
Cc1ccc(Cn2c(N3CCCC(C(=O)NCc4cccs4)C3)nc3ccsc3c2=O)cc1 (stereo not drawn)	952
CCc1ccc(N2CC(c3nc(-c4ccc(OC)cc4)no3)CC2=O)cc1 (stereo not drawn)	988
O=C(CSc1ccc(-c2ccc3c(c2)OCO3)nn1)c1cccs1	854
O=C1C2N=NN(Cc3nc(-c4cccc(Cl)c4)no3)C2C(=O)N1c1ccc2c(c1)CCC2 (stereo not drawn)	1130
Cc1nn(C(C)C(=O)NCCCN(C)Cc2ccccc2)c(=O)c2c(C)n(-c3ccccc3)nc12 (stereo not drawn)	687
CCN1CCN(CCNC(=O)Cc2cccn2-c2ccc(Cl)cc2)CC1	612
Cc1cc(-c2nnc(-c3ccc(F)cc3)o2)c(C)n1CC(=O)NC1CCCC1	908

Structure (SMILES)	RP-LC retention time [s]
Cc1nc(-c2cc(S(=O)(=O)NCC(=O)N3CCN(c4cccc(Cl)c4)CC3)c(C)s2)no1	829
CC(C)n1cnc(S(=O)(=O)N2CCC(C(=O)Nc3ccc4c(c3)OCO4)CC2)c1	722
O=C(NCCN1CCOCC1)c1csc(-c2ccc(N3CCCC3)nc2)n1	542
CC(C)(C)NC(=O)C(=O)NCC1CCN(C(=O)COc2ccccc2)CC1	747
CCOc1ccc(CNC(=O)C2CCN(S(=O)(=O)c3ccc4c(c3)CCCC(=O)N4)CC2)cc1	756
CCN1C(=O)COc2ccc(-c3csc(NC(=O)c4ccccc4F)n3)cc21	968
CCN(CC)c1ccc(NC(=O)C2CC(=O)N(c3cccc(NC(C)=O)c3)C2)c(C)c1 (stereo not drawn)	573
CC1CCCCC1NC(=O)c1sc2ncccc2c1-n1cccc1 (stereo not drawn)	1260
Cc1ccc(N2C=C(C(=O)N3CCOCC3)S(=O)(=O)c3ccc(F)cc32)cc1	814
COc1ccccc1-c1noc(Cn2c(=O)n(Cc3ccc(F)cc3)c(=O)c3sccc32)n1	1020
CCn1nccc1-c1csc(S(=O)(=O)N2CCCC2)c1	864
O=C(NC1CC1)C1CCCN(c2ccc(Sc3ccc(Br)cc3)nn2)C1 (stereo not drawn)	785
CCOc1cccc(CNc2nccc(-n3nc(C)cc3C)n2)c1	858
CC(=O)NCc1nc(-c2ccc3c(c2)nc(C)c(=O)n3C2CCCC2)no1	707
COc1ccc(Cl)cc1S(=O)(=O)N1CCC(n2cnnc2-c2ccccc2)CC1	825
COc1cc(NC(=O)NCCc2nc3cccnc3n2C2CCCCC2)cc(OC)c1OC	693
Cc1ccc(CN2CCn3c(nn(C)c3=O)C2)cc1C	662
COc1ccc(OCC(=O)N(C)CCc2noc(COc3ccccc3F)n2)cc1	848
CCN(C(=O)c1ccc(C(C)(C)C)cc1)c1nc(-c2ccccc2)cs1	949
CN(C)CCNc1oc(-c2ccc(COc3ccc(Cl)cc3)o2)nc1C#N	988
Cc1nc(-n2cccc2)sc1C(=O)NCc1ccc(C(C)C)cc1	1130
CCCCN1C(=O)C(C)(C(=O)Nc2ccc(F)cc2)Oc2cccnc21 (stereo not drawn)	1030

Structure (SMILES)	RP-LC retention time [s]
CCOc1ccc(CNC(=O)Cc2csc3nc(-c4ccc(C)c(C)c4)cn23)cc1	847
COc1ccc(Cl)cc1NC(=O)Cn1cc2c(n1)CCCC2	1020
Cc1nc(-c2cn(C(C)C)c3ncccc23)sc1C(=O)Nc1cccc(F)c1	1140
CCc1noc(-c2cc(=O)n(CC(=O)NCc3ccccc3OC)c3ccccc23)n1	900
COc1ccc(-c2nn3c(-c4ccc(N(C)C)cc4)nnc3s2)cc1	1120
CCCn1c2ccccc2c2cnn(CC(=O)NCCN3CCCCC3C)c(=O)c21 (stereo not drawn)	680
Cc1ccc(S(=O)(=O)N2CC(F)(F)C[C@H]2CN2CCc3ccccc3C2)cc1	766
CCc1noc(NC(C)=O)c1-c1ccc(C)c(S(=O)(=O)NC2CCCCCCC2)c1	959
O=C(CN1CCN(Cc2cccc(Cl)c2)C1=O)NCC1CCCCC1	920
O=C(NCCCO)c1ccc(CSc2nc3ccccc3[nH]2)cc1	562
Cc1ccc(C(=O)Nc2c(-c3ccc(F)cc3)nc3ccccn23)cc1[N+](=O)[O-]	701
CCNc1cc(C)nc(N2CCN(C(=O)CC)CC2)n1	567
O=C(CCc1nnc2c3cc(-c4ccc(Cl)cc4)nn3ccn12)N1CCN(c2ccccn2)CC1	955
COc1ccc(NC(=O)Cn2cnc3nc4c(cc3c2=O)CCCC4)c(OC)c1	709
CCOc1ccc(NC(=O)N2CCN(CCn3c(C(F)(F)F)nc4cccnc43)CC2)cc1	649
Clc1ccccc1-c1ccnc2nc(-c3ccccc3)nn12	928
COCCOC1CN(C2CCN(C(=O)c3ccc(C)s3)CC2)C12CCCCC2 (stereo not drawn)	656
COc1ccc(OCC(O)CN(CCO)CC(O)Cn2ccc3ccccc32)cc1 (stereo not drawn)	591
CCN(CCCNC(=O)C1CCCN(c2ncnc3c2oc2ccccc23)C1)c1ccccc1 (stereo not drawn)	649
CCOC(=O)C1=C(CN2CCN(CC)CC2)NC(=O)NC1c1ccc(OC)cc1 (stereo not drawn)	599
CCn1c(=O)n(-c2ccc(F)cc2)c2nc(-c3ccc(F)c(F)c3)nc(C(N)=O)c21	1050
O=C(CC1=C2CCCCC2NC1=O)Nc1ccccc1F (stereo not drawn)	693

Structure (SMILES)	RP-LC retention time [s]
Cc1cccc(CN2C(=O)N(c3ccc(F)cc3)c3ncccc3S2(=O)=O)c1	1090
Cc1ccc(NC(=O)N2CCC(c3nc(C(=O)N(C)C)c(C)o3)CC2)cc1Cl	799
Cc1ccc(S(=O)(=O)CCc2noc(C(=O)NCCCN3CCCC(C)C3)n2)cc1 (stereo not drawn)	632
O=S(=O)(NCCc1noc(-c2ccccc2)n1)c1ccc(Cl)cc1	980
CC(C)n1cnc(S(=O)(=O)N2CCC(C(=O)N3CCc4ccccc43)CC2)c1	769
COc1ccc(CCNc2nc(-c3ccc(Cl)cc3)cs2)cc1OC	1050
COc1cc(NC(=O)Nc2nccn(-c3ccc(C(C)C)cc3)c2=O)cc(OC)c1	1110
CCOc1nc2ccccc2nc1N1CCCC(C(=O)Nc2cccc(F)c2)C1 (stereo not drawn)	1200
O=C1CC(c2noc(-c3ccc(F)cc3)n2)CN1c1ccc(F)c(Cl)c1 (stereo not drawn)	1100
CCC(C)NC(=O)c1cc(COc2ccc(NC(=O)C(C)C)cc2)on1 (stereo not drawn)	776
COc1ccccc1CNc1ncnc2c1CCC2	621
O=C(CCc1c(-c2cccc(Cl)c2)nc2ccccn12)N1CCN(c2ccccc2)CC1	718
CNC(=O)C1CCCN(c2nc3ncn(CC(=O)Nc4cccc(SC)c4)c(=O)c3s2)C1 (stereo not drawn)	669
O=C(Cc1nnc(-c2cnccn2)o1)NCc1ccccc1	635
Cc1cccc(-c2noc(C3CCCN3S(=O)(=O)c3ccc(C(C)C)cc3)n2)c1 (stereo not drawn)	1330
Cc1ccc(C)c(N2CCN(C(=O)c3[nH]c(C)c(S(=O)(=O)N4CCCC4)c3C)CC2)c1	1020
CCOC(=O)c1c(S(=O)(=O)N2CCC(C(=O)Nc3cccc(CC)c3)CC2)c(C)n(CC)c1C	984
CCN1CCN(CCCNC(=O)C(C)n2c(=O)c(C(F)(F)F)nc3cc(C)c(C)cc32)CC1 (stereo not drawn)	649
O=C(Nc1cnn(-c2ncc(N3CCCCC3)cn2)c1)c1ccccn1	814
O=C(Cn1nc2c(c1NC(=O)c1c(F)cccc1Cl)CSC2)NCC1CCCO1 (stereo not drawn)	671
COCC1CN(Cc2cc3ccc(C)cc3[nH]c2=O)CCC1(F)F (stereo not drawn)	629
O=C(Cn1nnc2ccccc2c1=O)NCCc1c[nH]c2ccc(Cl)cc12	819
